PMC4774911, “Biochemical Screening of Five Protein Kinases from Plasmodium falciparum against 14,000 Cell-Active Compounds” (PLoS ONE, 2016)
Read-outs that look alike come from different tables or passages of the source.

What was measured:
[1] = test system: P. falciparum 3D7 cells; conditions: Nature 2010, cited from earlier work
[2] = test system: 3D7 PFLDH; design: method as in F.J. Gamo et al., Nature 2010; concentration or dose not given beside the values; conditions: downloaded from ChEMBL, ref F.J. Gamo et al., Nature 2010; cited from earlier work
[3] = target: T1, Plasmodium falciparum protein kinase 6 (PK6) (Plasmodium falciparum, UniProt Q8IDW1); test: biochemical; conditions: hits below 1 uM; read-out: PK6 IC50
T1 construct: 6-Histidine (N); made in house
T1 sequence (Q8IDW1 1-305): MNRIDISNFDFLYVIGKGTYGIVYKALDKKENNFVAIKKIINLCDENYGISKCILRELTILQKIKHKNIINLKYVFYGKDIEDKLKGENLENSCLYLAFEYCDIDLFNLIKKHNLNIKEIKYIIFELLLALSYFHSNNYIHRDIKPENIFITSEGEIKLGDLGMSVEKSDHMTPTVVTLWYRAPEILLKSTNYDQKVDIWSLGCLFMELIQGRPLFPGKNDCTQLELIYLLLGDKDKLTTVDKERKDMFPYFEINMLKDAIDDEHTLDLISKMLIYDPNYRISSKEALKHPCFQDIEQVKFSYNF

[4] = test system: HepG2 cells; conditions: Nature 2010, cited from earlier work
[5] = test system: DD2; design: method as in F.J. Gamo et al., Nature 2010; conditions: downloaded from ChEMBL, ref F.J. Gamo et al., Nature 2010; cited from earlier work
[6] = target: T2, Plasmodium falciparum calcium-dependent protein kinase 1 (CDPK1) (Plasmodium falciparum, UniProt P62344); test: CDPK1 Kinase-Glo ATP-consumption screen and dose-response; type: biochemical; conditions: hits below 1 uM; read-out: CDPK1 IC50
T2 construct: 6-Histidine (N); made in house
Experimental: Biochemical assays were performed in white 384-well plates (Nunc). Liquid transfers were done manually with 8-channel pipets. Compounds were initially tested in a single-point screen (final concentration 1 μM). […] The catalytic activity of each kinase was considered proportional to ATP consumed, as determined from measurements of residual [ATP] with the luciferase-based reagent Kinase-Glo (Promega) following incubation. Luminescence (proportional to residual [ATP]) was measured on the plate readers FLx800 (BioTek Instruments, Winooski, VT, USA) and MicroBeta^2 (PerkinElmer, Waltham, MA, USA). Incubation times were chosen to ensure near-complete ATP depletion in the absence of inhibition, thus maximizing the difference in signal between inhibited and uninhibited wells.
40 μM Syntide-2 was used as a substrate; BKI-1 [14] was used as a control inhibitor, while reaction mixtures lacking Syntide-2 were included as an additional negative control. Incubation time was 90 minutes. Reactions were terminated by adding excess EGTA (5 mM), which sequesters Ca^2+ and halts calcium-dependent kinase activity.

[7] = test system: 3D7 PFLDH; design: method as in F.J. Gamo et al., Nature 2010; conditions: downloaded from ChEMBL ref F.J. Gamo et al., Nature 2010; cited from earlier work
[8] = test system: DD2; design: method as in F.J. Gamo et al., Nature 2010; conditions: P. falciparum Dd2; downloaded from ChEMBL ref F.J. Gamo et al., Nature 2010; cited from earlier work
[9] = 3D7, downloaded from ChEMBL, ref F.J. Gamo et al.
[10] = HepG2, downloaded from ChEMBL, ref F.J. Gamo et al.
[11] = P. falciparum 3D7, downloaded from ChEMBL ref F.J. Gamo et al.
[12] = HepG2 cells, downloaded from ChEMBL ref F.J. Gamo et al.

T2 sequence (P62344 whole entry): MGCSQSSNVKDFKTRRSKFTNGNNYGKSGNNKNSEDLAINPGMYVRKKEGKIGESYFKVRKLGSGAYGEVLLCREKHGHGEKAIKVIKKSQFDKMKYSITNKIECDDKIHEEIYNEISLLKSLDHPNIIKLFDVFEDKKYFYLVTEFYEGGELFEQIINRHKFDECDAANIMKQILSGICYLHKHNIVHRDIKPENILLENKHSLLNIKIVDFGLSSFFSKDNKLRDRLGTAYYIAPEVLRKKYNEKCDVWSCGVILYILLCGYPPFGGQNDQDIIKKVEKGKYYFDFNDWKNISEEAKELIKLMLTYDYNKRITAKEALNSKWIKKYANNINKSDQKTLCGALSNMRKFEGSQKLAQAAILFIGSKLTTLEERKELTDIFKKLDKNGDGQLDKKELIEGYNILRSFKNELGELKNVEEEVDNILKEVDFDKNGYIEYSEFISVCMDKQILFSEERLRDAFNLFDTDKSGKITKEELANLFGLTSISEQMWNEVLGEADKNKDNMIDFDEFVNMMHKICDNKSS

Row | Structure (SMILES) | IC50 [3] | IC50 [6] | PCT_IHB_3D7 [1, 9] | pXC50_3D7 [1, 9] | PCT_INHIB_3D7_PFLDH [2] | PCT_INHIB_HEPG2 [4, 10] | PCT_INHB_DD2 [5] | PCT_IHB_3D7 [1, 11] | pXC50_3D7 [1, 11] | PCT_INHIB_3D7_PFLDH [7] | PCT_INHB_DD2 [8] | PCT_INHIB_HEPG2 [4, 12]
1 | CC(=O)c1ccc(NC(=O)Nc2ccc(N(C)c3ccnc(Nc4cccc(CS(C)(=O)=O)c4)n3)cc2)cc1 [TCMDC-138736] | 138 nM |  | 100% | 6.9122 | 0% | 86% | 98% |  |  |  |  | 
2 | CCNC(=O)Nc1ccc(N(C)c2ccnc(Nc3ccc(CS(C)(=O)=O)cc3)n2)cc1.Cl [TCMDC-138759] | 269 nM |  | 100% | 7.051 | 2% | 0% | 99% |  |  |  |  | 
3 | CN1CCC=C(C(=O)NCC(C)(C)c2nc(-c3ccc(Cl)c(O)c3)c(-c3ccncc3)[nH]2)C1.Cl [TCMDC-140700] |  | 213 nM |  |  |  |  |  | 96 | 6 | 0 | 96 | 39
4 | COc1ccc(C(=O)NCC(C)(C)c2nc(-c3ccc(Cl)c(O)c3)c(-c3ccncc3)[nH]2)cc1OCCN(C(C)C)C(C)C.Cl [TCMDC-140736] |  | 387 nM |  |  |  |  |  | 100 | 6.192 | 4 | 96 | 62
5 | CNCC(C)(C)c1nc(-c2ccc(Cl)c(O)c2)c(-c2ccncc2)[nH]1.Cl [TCMDC-140762] |  | 49 nM |  |  |  |  |  | 98 | 6.133 | 0 | 96 | 46
6 | CC(C)(CNC(=O)[C@H]1CCCCN1)c1nc(-c2ccc(Cl)c(O)c2)c(-c2ccncc2)[nH]1.Cl [TCMDC-141070] |  | 164 nM |  |  |  |  |  | 98 | 6.139 | 0 | 98 | 6
7 | CC(C)(CNC(=O)C1CCN(CCOCc2ccccc2)CC1)c1nc(-c2ccc(Cl)c(O)c2)c(-c2ccncc2)[nH]1.Cl [TCMDC-141122] |  | 734 nM |  |  |  |  |  | 100 | 6.208 | 0 | 18 | 11
8 | CC(C)(CNC(=O)C1CCN(CCOc2ccc(F)c(F)c2)CC1)c1nc(-c2ccc(Cl)c(O)c2)c(-c2ccncc2)[nH]1.Cl [TCMDC-141136] |  | 664 nM |  |  |  |  |  | 100 | 6.5 | 0 | 19 | 41
9 | CC(C)(CNC(=O)C1CCN(Cc2ccc(Cl)cc2)CC1)c1nc(-c2ccc(Cl)c(O)c2)c(-c2ccncc2)[nH]1.Cl [TCMDC-141138] |  | 347 nM |  |  |  |  |  | 100 | 6.206 | 0 | 83 | 36
10 | Cl.Oc1cc(-c2nc(C3(CNCc4ccc(Cl)cc4)CCCCC3)[nH]c2-c2ccncc2)ccc1Cl [TCMDC-141155] |  | 846 nM |  |  |  |  |  | 100 | 6.903 | 2 | 99 | 35
11 | CC(C)(CNCc1ccc(C(F)(F)F)cc1)c1nc(-c2ccnc(N)n2)c(-c2ccc(Cl)c(O)c2)[nH]1.Cl [TCMDC-141162] |  | 353 nM |  |  |  |  |  | 100 | 6.817 | 0 | 37 | 32
12 | CN(C)CCOc1ccc(-c2cc(-c3ccc(Cl)c(O)c3)c(-c3ccnc(N)n3)o2)cc1 [TCMDC-141332] |  | 168 nM |  |  |  |  |  | 100 | 5.879 | 2 | 95 | 43
13 | CN(C)CCOc1ccc(-c2cc(-c3ccnc(N)n3)c(-c3ccc(Cl)c(O)c3)o2)cc1 [TCMDC-141338] |  | 684 nM |  |  |  |  |  | 100 | 6.01 | 5 | 91 | 14

Second part, led by results:

Row | IC50 [3] | IC50 [6] | Structure (SMILES) | PCT_IHB_3D7 [1, 9] | pXC50_3D7 [1, 9] | PCT_INHIB_3D7_PFLDH [2] | PCT_INHIB_HEPG2 [4, 10] | PCT_INHB_DD2 [5] | PCT_IHB_3D7 [1, 11] | pXC50_3D7 [1, 11] | PCT_INHIB_3D7_PFLDH [7] | PCT_INHB_DD2 [8] | PCT_INHIB_HEPG2 [4, 12]
14 | 691 nM |  | CS(=O)(=O)Cc1ccc(Nc2ncc(Cl)c(Nc3cccnc3C(N)=O)n2)cc1.Cl [TCMDC-134165] | 97% | 6.062 | 0% | 54% | 97% |  |  |  |  | 
15 | 74 nM |  | CS(=O)(=O)Cc1cccc(Nc2ncc(Cl)c(Nc3cccnc3C(N)=O)n2)c1.Cl [TCMDC-134166] | 96% | 6.775 | 0% | 56% | 97% |  |  |  |  | 
16 | 128 nM |  | CC(=O)Nc1ccc(Nc2ncc([N+](=O)[O-])c(Nc3ccccc3C(N)=O)n2)cc1.Cl [TCMDC-138731] | 98% | 6.437 | 2% | 42% | 97% |  |  |  |  | 
17 | 844 nM |  | CN(c1ccc2c(c1)nc(NCc1ccc(F)cc1)n2C)c1ccnc(Nc2ccc(CS(C)(=O)=O)cc2)n1.Cl [TCMDC-138747] | 97% | 6.082 | 7% | 48% | 79% |  |  |  |  | 
18 |  | 539 nM | CC(C)(CNCc1ccc(Cl)c(Cl)c1)c1nc(-c2ccc(Cl)c(O)c2)c(-c2ccncc2)[nH]1.Cl [TCMDC-140688] |  |  |  |  |  | 100 | 6.121 | 0 | 97 | 43
19 |  | 438 nM | CC(C)(CNCc1ccc(OC(F)(F)F)cc1)c1nc(-c2ccc(Cl)c(O)c2)c(-c2ccncc2)[nH]1.Cl [TCMDC-140708] |  |  |  |  |  | 100 | 6.263 | 0 | 99 | 38
20 |  | 425 nM | CC(C)(CNC(=O)C1CCN(Cc2ccoc2)CC1)c1nc(-c2ccc(Cl)c(O)c2)c(-c2ccncc2)[nH]1.Cl [TCMDC-140954] |  |  |  |  |  | 93 | 6.062 | 0 | 66 | 0
21 |  | 7.49 nM | CC(C)(CN)c1nc(-c2ccc(Cl)c(O)c2)c(-c2ccnc(N)n2)[nH]1 [TCMDC-141019] |  |  |  |  |  | 95 | 6.0083 | 0 | 95 | 34
22 |  | 179 nM | CC(C)(CNC(=O)[C@H]1CCCN1)c1nc(-c2ccc(Cl)c(O)c2)c(-c2ccncc2)[nH]1.Cl [TCMDC-141060] |  |  |  |  |  | 86 | 5.895 | 0 | 95 | 0
23 |  | 192 nM | CC(C)(CNC(=O)[C@@H]1CCCCN1)c1nc(-c2ccc(Cl)c(O)c2)c(-c2ccncc2)[nH]1.Cl [TCMDC-141079] |  |  |  |  |  | 97 | 6.075 | 0 | 96 | 0
24 |  | 471 nM | CC(C)(CNC(=O)C1CCN(CCOc2ccc(Cl)cc2)CC1)c1nc(-c2ccc(Cl)c(O)c2)c(-c2ccncc2)[nH]1.Cl [TCMDC-141124] |  |  |  |  |  | 100 | 6.149 | 7 | 5 | 40
25 |  | 755 nM | CC(C)(CNCCOc1ccc(Cl)cc1)c1nc(-c2ccnc(N)n2)c(-c2ccc(Cl)c(O)c2)[nH]1.Cl [TCMDC-141161] |  |  |  |  |  | 97 | 6.079 | 0 | 19 | 45
26 |  | 469 nM | CC(C)(CNCc1ccc(F)c(F)c1)c1nc(-c2ccnc(N)n2)c(-c2ccc(Cl)c(O)c2)[nH]1.Cl [TCMDC-141163] |  |  |  |  |  | 99 | 6.131 | 0 | 79 | 41
